Data from patent publication US10457811B2, “Surface-modified calcium oxide” (Kalkfabrik Netstal AG, priority 2012, dated 2019).
Structures can show the parent of a compound that is named as a salt.

Test system: Erwinia amylovora strain 385 (Ea385)
Assay: Fire blight test on inoculated apple blossoms (Gala)
Assay type: in vivo
Conditions: 0.06% spray solution, 1 hour after inoculation, reduction of infestation after 6 days
Description: Finely pulverized CaO was coated with stearic acid (5% by weight of stearic acid relative to CaO) and was tested, as dust on apple blossoms, against fire blight. The standardized tests were carried out at an institute certified therefor (bio-ferm Research GmbH, DE). Apple blossoms of the Gala type were placed, with the pedicel, in a 10% saccharose solution and were incubated in a humid chamber. Inoculation/pathogen: Erwinia amylovora strain 385 (Ea385), as a bacterial suspension of fresh cultures with 10 million cells per milliliter, was sprayed onto the blossoms. Infested blossoms were treated, 1 hour after inoculation, with the coated CaO as dust (test series) or were subjected to the standard treatment (streptomycin sulfate 0.06% as spray solution; control and benchmark). Evaluation: The blossoms were investigated after 6 days, and analyzed in terms of the pathogen-typical features of an infection (slime spots). 39% of the blossoms without treatment were infested with fire blight. The reduction of the infestation by means of the corresponding treatment was evaluated, in terms of the efficacy of the treatment.

`[H]/N=C(/N)N[C@H]1[C@H](O)[C@@H](O)[C@H](O[C@@H]2O[C@@H](C)[C@](O)(C=O)[C@H]2O[C@@H]2O[C@@H](CO)[C@H](O)[C@@H](O)[C@@H]2NC)[C@@H](N/C(N)=N\[H])[C@@H]1O` [Streptomycin sulfate, streptomycin sulfate] was tested, and the “Efficacy of the treatment” value was 68%.
